pIC50, pKi: −log10 of the molar value.
What follows are compounds tested against T1, hCB1R (Homo sapiens, UniProt P21554) (assay: Binding to the CB1 receptor ([3H]-SR141716A displacement)). Conditions: not given.
Protocol: Binding to the CB1 Receptor:
Test compounds: The compounds (3 μl, 10 mM, 100% DMSO), pipetted into 96-well PP microtiter plates, were diluted with 27 μl of 100% DMSO (dimethyl sulfoxide). Proceeding from this solution, further 3-fold dilution steps were undertaken by transferring 10 μl in each case to a new PP microtiter plate and adding a further 20 μl of 100% DMSO. In each case 6 μl of these solutions were transferred into new 96-well PP microtiter plates and made up with 144 μl of assay buffer. The end concentrations ranged from 10 μM to 0.005 μM. Negative control: AM 251, dissolved in assay buffer with 1% DMSO, was added to the dilution series in the microtiter plates as a control. The end concentration was 1 μM. Blank control: assay buffer with 1% DMSO was added to the dilution series of the microtiter plates as a blank control.
Summary of the Assay Parameters:
High control: ^3H binding without addition of the compound
Low control: ^3H binding in the presence of 1 μM AM 251
The values were calculated using the corrected raw data.
The values reported were obtained as average values of a double determination. The IC50 values were calculated from the measurements with the program Xlfit, formula 205. Ki values were obtained from the IC50 and Kd values utilizing the Cheng-Prusoff equation: […]
Literature: Cheng, Y.-C., and Prusoff, W. H. (1973) Biochem. Pharmacol 22, 3099-3108

T1 sequence (P21554 whole entry): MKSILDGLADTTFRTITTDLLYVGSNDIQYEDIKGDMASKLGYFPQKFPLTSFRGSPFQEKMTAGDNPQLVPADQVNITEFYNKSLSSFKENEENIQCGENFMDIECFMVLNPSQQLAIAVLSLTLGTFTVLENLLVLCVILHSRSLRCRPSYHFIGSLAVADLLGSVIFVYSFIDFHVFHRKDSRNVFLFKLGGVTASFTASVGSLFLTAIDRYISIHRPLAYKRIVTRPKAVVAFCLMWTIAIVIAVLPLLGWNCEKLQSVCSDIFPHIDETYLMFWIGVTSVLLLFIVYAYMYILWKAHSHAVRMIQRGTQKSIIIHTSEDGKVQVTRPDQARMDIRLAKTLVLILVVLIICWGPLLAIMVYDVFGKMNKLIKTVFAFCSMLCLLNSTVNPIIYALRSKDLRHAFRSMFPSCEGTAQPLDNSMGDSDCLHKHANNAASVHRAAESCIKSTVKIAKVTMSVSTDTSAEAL

Row | SMILES | pKi
1 | CC1(C)C(=O)N(c2ccc(C#N)c(C(F)(F)F)c2)C(=O)N1Cc1ccc(C(F)(F)F)cc1Nc1ccc(F)cc1 [Example 55, 4-{3-[2-(4-Fluorophenylamino)-4-trifluoromethylbenzyl]-4,4-dimethyl-2,5-dioxoimidazolidin-1-yl}-2-trifluoromethylbenzonitrile] | 8.10
2 | CC1(C)C(=O)N(c2ccc(C#N)c(C(F)(F)F)c2)C(=O)N1Cc1ccccc1Nc1ccc(S(N)(=O)=O)cc1 [Example 68, 5,5-4-{2-[3-(4-Cyano-3-trifluoromethylphenyl)-5,5-dimethyl-2,4-dioxoimidazolidin-1-ylmethyl]phenylamino}benzene sulfonamide] | 7.80
3 | CC1(C)C(=O)N(c2ccc(C#N)c(C(F)(F)F)c2)C(=O)N1Cc1ccccc1Nc1ccc(Oc2ccccc2)cc1 [Example 128, 4-{4,4-dimethyl-2,5-dioxo-3-[2-(4-phenoxyphenylamino)benzyl]-imidazolidin-1-yl}-2-trifluoromethylbenzonitrile] | 8.70
4 | COC(=O)c1cc(Nc2ccccc2CN2C(=O)N(c3ccc(C#N)c(C(F)(F)F)c3)C(=O)C2(C)C)ccc1OC [Example 129, methyl 5-{2-[3-(4-cyano-3-trifluoromethylphenyl)-5,5-dimethyl-2,4-dioxoimidazolidin-1-ylmethyl]phenylamino}-2-methoxybenzoate] | 8.00
5 | CC1(C)C(=O)N(c2ccc(C#N)c(C(F)(F)F)c2)C(=O)N1Cc1ccc(C#N)cc1Nc1ccc(C(=O)O)cc1 [Example 132, 4-{5-cyano-2-[3-(4-cyano-3-trifluoromethylphenyl)-5,5-dimethyl-2,4-dioxoimidazolidin-1-ylmethyl]phenylamino}benzoic acid] | 8.22
6 | CC1(C)C(=O)N(c2ccc(F)c(C(F)(F)F)c2)C(=O)N1Cc1ccccc1Nc1ccc(C#N)cc1 [Example 134, 4-{2-[3-(4-fluoro-3-trifluoromethylphenyl)-5,5-dimethyl-2,4-dioxoimidazolidin-1-ylmethyl]phenylamino}benzonitrile] | 8.40
7 | CC1(C)C(=O)N(c2ccc(C#N)c(C(F)(F)F)c2)C(=O)N1Cc1ccccc1Nc1ccc(C(=O)NCCO)cc1 [Example 149, 4-{2-[3-(4-cyano-3-trifluoromethylphenyl)-5,5-dimethyl-2,4-dioxoimidazolidin-1-ylmethyl]phenylamino}-N-(2-hydroxyethyl)benzamide] | 8.22
8 | CC1(C)C(=O)N(c2ccc(C#N)c(C(F)(F)F)c2)C(=O)N1Cc1ccccc1Nc1cccc(S(N)(=O)=O)c1 [Example 153, 3-{2-[3-(4-Cyano-3-trifluoromethylphenyl)-5,5-dimethyl-2,4-dioxoimidazolidin-1-ylmethyl]phenylamino}benzenesulfonamide] | 7.70
9 | COC(=O)c1ccc(Nc2cc(F)ccc2CN2C(=O)N(c3ccc(C#N)c(C(C)(C)C)c3)C(=O)C2(C)C)cc1 [Example 157, methyl 4-{2-[3-(3-tert-butyl-4-cyanophenyl)-5,5-dimethyl-2,4-dioxoimidazolidin-1-ylmethyl]-5-fluorophenylamino}benzoate] | 8.30
10 | COC(=O)c1ccc(Nc2cc(F)ccc2CN2C(=O)N(c3ccc(C#N)c(C)c3)C(=O)C2(C)C)cc1 [Example 160, Methyl 4-{2-[3-(4-cyano-3-methylphenyl)-5,5-dimethyl-2,4-dioxoimidazolidin-1-ylmethyl]-5-fluorophenylamino}benzoate] | 8.52
11 | CC1(C)C(=O)N(c2ccc(C#N)c(C(F)(F)F)c2)C(=O)N1Cc1ccccc1Nc1ccc(C(=O)NCC(N)=O)cc1 [Example 161, N-carbamoylmethyl-4-{2-[3-(4-cyano-3-trifluoromethylphenyl)-5,5-dimethyl-2,4-dioxoimidazolidin-1-ylmethyl]phenylamino}benzamide] | 8.10
12 | CCOC(=O)c1ccc(Nc2cc(C(F)(F)F)ccc2CN2C(=O)N(c3ccc(C#N)c(C(F)(F)F)c3)C(=O)C2(C)C)cc1 [Example 165, ethyl 4-{2-[3-(4-cyano-3-trifluoromethylphenyl)-5,5-dimethyl-2,4-dioxoimidazolidin-1-ylmethyl]-5-trifluoromethylphenylamino}benzoate] | 7.80
13 | CC1(C)C(=O)N(c2ccc(C#N)c(C(F)(F)F)c2)C(=O)N1Cc1ccccc1Nc1ccc(C(=O)NCCCS(C)(=O)=O)cc1 [Example 173, 4-{2-[3-(4-Cyano-3-trifluoromethylphenyl)-5,5-dimethyl-2,4-dioxoimidazolidin-1-ylmethyl]phenylamino}-N-(3-methanesulfonylpropyl)benzamide] | 7.47
14 | COc1ccc(Nc2ccccc2CN2C(=O)N(c3ccc(C#N)c(C(F)(F)F)c3)C(=O)C2(C)C)nn1 [Example 179, 4-{3-[2-(6-methoxypyridazin-3-ylamino)benzyl]-4,4-dimethyl-2,5-dioxoimidazolidin-1-yl}-2-trifluoromethylbenzonitrile] | 7.80

Same assay, conditions: CHO-K1/cannabinoid CB1 protein 2 μg/well; [3H]-SR141716A 0.5 nM; Ki from IC50 by Cheng-Prusoff; average of double determination; read-out: hCB1R; binding Ki

Row | SMILES | pKi
15 | CCNS(=O)(=O)c1ccc(Nc2ccccc2CN2C(=O)N(c3ccc(C#N)c(C(F)(F)F)c3)C(=O)C2(C)C)cc1 [Example 151, 4-{2-[3-(4-cyano-3-trifluoromethylphenyl)-5,5-dimethyl-2,4-dioxoimidazolidin-1-ylmethyl]phenylamino}-N-ethylbenzenesulfonamide] | 6.81
16 | COC(=O)c1ccc(Nc2cc(F)ccc2CN2C(=O)N(c3ccnc(C(C)(C)C)c3)C(=O)C2(C)C)cc1 [Example 167, Methyl 4-{2-[3-(2-tert-butylpyridin-4-yl)-5,5-dimethyl-2,4-dioxoimidazolidin-1-ylmethyl]-5-fluorophenylamino}benzoate] | 8.15
17 | CC1(C)C(=O)N(c2ccc(F)c(C(F)(F)F)c2)C(=O)N1Cc1ccc(F)cc1Nc1ccc(C(=O)NC[C@H](O)[C@@H](O)[C@H](O)[C@H](O)CO)cc1 [Example 170, 4-{5-Fluoro-2-[3-(4-fluoro-3-trifluoromethylphenyl)-5,5-dimethyl-2,4-dioxoimidazolidin-1-ylmethyl]phenylamino}-N-((2S,3R,4R,5R)-2,3,4,5,6-pentahydroxyhexyl)benzamide] | 6.95
18 | CC1(C)C(=O)N(c2ccc(F)c(C(F)(F)F)c2)C(=O)N1Cc1ccc(F)cc1Nc1ccc(C(=O)N2CCC(O)CC2)cc1 [Example 171, 1-{4-Fluoro-2-[4-(4-hydroxypiperidine-1-carbonyl)phenylamino]benzyl}-3-(4-fluoro-3-trifluoromethylphenyl)-5,5-dimethylimidazolidine-2,4-dione] | 6.92
19 | CC1(C)C(=O)N(c2ccc(F)c(C(F)(F)F)c2)C(=O)N1Cc1ccc(F)cc1Nc1ccc(C(=O)N2CCNCC2)cc1 [Example 172, 1-{4-Fluoro-2-[4-(piperazine-1-carbonyl)phenylamino]benzyl}-3-(4-fluoro-3-trifluoromethylphenyl)-5,5-dimethylimidazolidine-2,4-dione] | 8.10
20 | CC1(C)C(=O)N(c2ccc(C#N)c(C(F)(F)F)c2)C(=O)N1Cc1ccccc1Nc1ccc(C(=O)NN2CCCCC2)cc1 [Example 174, 4-{2-[3-(4-Cyano-3-trifluoromethylphenyl)-5,5-dimethyl-2,4-dioxoimidazolidin-1-ylmethyl]phenylamino}-N-piperidin-1-ylbenzamide] | 6.84
21 | CC1(C)C(=O)N(c2ccc(C#N)c(C(F)(F)F)c2)C(=O)N1Cc1ccccc1Nc1ccc(N(S(C)(=O)=O)S(C)(=O)=O)cc1 [Example 176] | 6.89
22 | COC(=O)c1ccc(Nc2cc(F)ccc2CN2C(=O)N(c3ccc(C#N)c(-c4ccccc4)c3)C(=O)C2(C)C)cc1 [Example 223] | 8.40
23 | COC(=O)c1ccc(Nc2cc(F)ccc2CN2C(=O)N(c3ccc(C#N)c(-c4ccc(Cl)cc4)c3)C(=O)C2(C)C)cc1 [Example 224, methyl 4-{2-[3-(4′-chloro-6-cyanobiphenyl-3-yl)-5,5-dimethyl-2,4-dioxoimidazolidin-1-ylmethyl]-5-fluorophenylamino}benzoate] | 8.22
24 | CC1(C)C(=O)N(c2ccc(C#N)c(-c3ccccc3)c2)C(=O)N1Cc1ccc(F)cc1Nc1ccc(C(=O)O)cc1 [Example 227, 4-{2-[3-(6-cyanobiphenyl-3-yl)-5,5-dimethyl-2,4-dioxoimidazolidin-1-ylmethyl]-5-fluorophenylamino}benzoic acid] | 7.44

The compounds below were run against T1, hCB1R (assay: In vitro functional assay (FLIPR, intracellular Ca2+) with recombinant HEK293 cells, CB1). Conditions: not given.
Format: cell-based
Set-up: expressed in transfected cells; host or cells: HEK293
Source text: In Vitro Functional Assays with Recombinant Cells:

Row | SMILES | pIC50
25 | CC1(C)C(=O)N(c2ccc(C#N)c(C(F)(F)F)c2)C(=O)N1Cc1ccccc1Nc1ccc(F)cc1 [Example 2, 4-{3-[2-(4-fluorophenylamino)benzyl]-4,4-dimethyl-2,5-dioxoimidazolidin-1-yl}-2-trifluoromethylbenzonitrile] | 7.96

Same assay, conditions: recombinant HEK293 cells expressing CB1 and Galpha16; 20 min preincubation, then reference agonist; Ca2+ change; read-out: hCB1R: FLIPR; IC50

Row | SMILES | pIC50
26 | CC1(C)C(=O)N(c2ccc(C#N)c(C(F)(F)F)c2)C(=O)N1Cc1ccc(C(F)(F)F)cc1Nc1ccc(F)cc1 [Example 55, 4-{3-[2-(4-Fluorophenylamino)-4-trifluoromethylbenzyl]-4,4-dimethyl-2,5-dioxoimidazolidin-1-yl}-2-trifluoromethylbenzonitrile] | 8.00
27 | CC1(C)C(=O)N(c2ccc(C#N)c(C(F)(F)F)c2)C(=O)N1Cc1ccccc1Nc1ccc(S(N)(=O)=O)cc1 [Example 68, 5,5-4-{2-[3-(4-Cyano-3-trifluoromethylphenyl)-5,5-dimethyl-2,4-dioxoimidazolidin-1-ylmethyl]phenylamino}benzene sulfonamide] | 7.36
28 | CC1(C)C(=O)N(c2ccc(C#N)c(-c3ccccc3)c2)C(=O)N1Cc1ccc(F)cc1Nc1ccc(C(=O)O)cc1 [Example 227, 4-{2-[3-(6-cyanobiphenyl-3-yl)-5,5-dimethyl-2,4-dioxoimidazolidin-1-ylmethyl]-5-fluorophenylamino}benzoic acid] | 7.80

These compounds were tested against hCB2R (Homo sapiens, UniProt P34972) (assay: In vitro functional assay (FLIPR, intracellular Ca2+) with recombinant HEK293 cells, CB2). Conditions: read-out: hCB2R: FLIPR; IC50; recombinant HEK293 cells expressing CB2 and Galpha16; 20 min preincubation, then reference agonist; Ca2+ change.
Chain of hCB2R (P34972 whole entry): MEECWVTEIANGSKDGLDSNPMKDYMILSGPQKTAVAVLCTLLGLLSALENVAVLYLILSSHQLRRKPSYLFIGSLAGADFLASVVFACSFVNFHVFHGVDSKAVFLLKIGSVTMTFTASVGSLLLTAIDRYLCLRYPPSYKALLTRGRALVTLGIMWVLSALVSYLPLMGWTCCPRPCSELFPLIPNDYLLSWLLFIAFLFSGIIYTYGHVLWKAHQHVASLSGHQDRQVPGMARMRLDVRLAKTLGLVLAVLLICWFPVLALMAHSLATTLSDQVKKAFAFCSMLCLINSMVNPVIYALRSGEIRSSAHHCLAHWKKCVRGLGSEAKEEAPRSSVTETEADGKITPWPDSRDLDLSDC
Protocol: Function-testing assays were performed by means of the FLIPR technique (“Fluorometric Imaging Plate Reader”, Molecular Devices Corp.).
To this end, ligand-induced changes in the intracellular concentration of Ca^2+ in recombinant HEK293 cells, which expressed both a cannabinoid receptor (CB1 or CB2) and G-protein Galpha16, were determined. For the studies, cells were sown into 96-well microtiter plates (60 000 cells/well) and left to grow overnight. The medium was removed and the cells were incubated in buffer which contained the fluorescent dye Fluo-4. After this loading with dye, the cells were washed, test substance was added dissolved in buffer, the mixture was incubated for 20 minutes, a known cannabinoid receptor agonist as a reference agonist was added in buffer and, finally, the changes in the intracellular Ca^2+ concentration were measured in the FLIPR unit.

Row | SMILES | pIC50
29 | CC1(C)C(=O)N(c2ccc(C#N)c(C(F)(F)F)c2)C(=O)N1Cc1ccccc1Nc1ccc(F)cc1 [Example 2, 4-{3-[2-(4-fluorophenylamino)benzyl]-4,4-dimethyl-2,5-dioxoimidazolidin-1-yl}-2-trifluoromethylbenzonitrile] | < 5.00

— patent US7759366B2 (Sanofi-Aventis, priority 2006, dated 2010)
